Experimental data: US20130344026A1, “Dimeric Smac Mimetics” (priority 2009, published 2013)
Where two headings read alike, the source gives them in different places.

Tested on: PANC-1 cells
Test: cell viability assay in PANC-1 cells (compound alone, + 100 ng/ml TNFa, + 300 ng/ml TRAIL)
Format: cell-based
[1] = Homo sapiens, PANC-1, compound alone, Tables 6-10, read-out: IC50 (μM) in cell viability assay in PANC-1 cells: Compound alone
[2] = with 100 ng/ml TNFa, Tables 6-10, read-out: IC50 (μM) in cell viability assay in PANC-1 cells: Compound + 100 ng/ml TNFa
[3] = with 300 ng/ml TRAIL, Tables 6-10, read-out: IC50 (μM) in cell viability assay in PANC-1 cells: Compound + 300 ng/ml TRAIL
[4] = Homo sapiens, PANC-1, compound alone, Tables 15-18, read-out: IC50 (uM) in cell viability assay in PANC-1 cells: Cmpnd alone
[5] = with 100 ng/ml TNFa, Tables 15-18, read-out: IC50 (uM) in cell viability assay in PANC-1 cells: Cmpnd + 100 ng/ml TNFa
[6] = with 300 ng/ml TRAIL, Tables 15-18, read-out: IC50 (uM) in cell viability assay in PANC-1 cells: Cmpnd + 300 ng/ml TRAIL

| SMILES | IC50 [1] [µM] | IC50 [2] [µM] | IC50 [3] [µM] | also measured |
| --- | --- | --- | --- | --- |
| CN[C@@H](C)C(=O)N[C@@H](CCCCCC[C@H](NC(=O)[C@H](C)NC)C(=O)N1CC[C@H]1C(=O)N[C@@H]1CCCc2ccccc21)C(=O)N1CC[C@H]1C(=O)N[C@@H]1CCCc2ccccc21 [Compound 102] | > 1 | 0.064 | 0.069 | – |
| CN[C@@H](C)C(=O)N[C@H](C(=O)N1C[C@@H](NC(=O)c2cccc(C(=O)N[C@H]3C[C@@H](C(=O)NC4CCSc5ccccc54)N(C(=O)[C@@H](NC(=O)[C@H](C)NC)C(C)(C)C)C3)c2)C[C@H]1C(=O)NC1CCSc2ccccc21)C(C)(C)C (single isomer, unassigned) [Compound 67] | > 1 | 0.191 | 0.22 | – |
| CN[C@@H](C)C(=O)N[C@@H](CCCCCC[C@H](NC(=O)[C@H](C)NC)C(=O)N1CCC[C@H]1c1ncc(C(=O)Nc2ccccc2)o1)C(=O)N1CCC[C@H]1c1ncc(C(=O)Nc2ccccc2)o1 [Compound 39] | > 1 | > 1 | > 1 | – |
| CN[C@@H](C)C(=O)N[C@@H]1CCN(C(=O)c2ccc(C(=O)N[C@H]3C[C@@H](C(=O)N[C@@H]4CCCc5ccccc54)N(C(=O)[C@@H](NC(=O)[C@H](C)NC)C(C)(C)C)C3)cc2)C1 [Compound 186] | > 1 | 0.56 | 0.55 | – |
| CN[C@@H](C)C(=O)N[C@@H](CCCCCC[C@H](NC(=O)[C@H](C)NC)C(=O)N1CCC[C@H]1CNC(=O)c1ccccn1)C(=O)N1CCC[C@H]1CNC(=O)c1ccccn1 [Compound P2-47] | – | – | – | IC50 [4]: > 1 µM; IC50 [5]: 0.108 µM; IC50 [6]: 0.153 µM |
| CCC1(NC(=O)[C@@H]2C[C@H](NC(=O)c3cc(C(=O)N[C@H]4C[C@@H](C(=O)NC5(CC)CCCc6ccccc65)N(C(=O)[C@@H](NC(=O)[C@H](C)NC)C(C)(C)C)C4)[nH]n3)CN2C(=O)[C@@H](NC(=O)[C@H](C)NC)C(C)(C)C)CCCc2ccccc21 (stereo partly drawn) [Compound 52] | > 1 | 0.046 | 0.052 | – |
| CN[C@@H](C)C(=O)N[C@H](C(=O)N1C[C@@H](NC(=O)c2cccc(C(=O)N[C@H]3C[C@@H](C(=O)NC4CCCc5cc(Br)ccc54)N(C(=O)[C@@H](NC(=O)[C@H](C)NC)C(C)(C)C)C3)c2)C[C@H]1C(=O)NC1CCCc2cc(Br)ccc21)C(C)(C)C (single isomer, unassigned) [Compound 75] | > 1 | 0.018 | 0.013 | – |
| CN[C@@H](C)C(=O)N[C@H](C(=O)N1C[C@@H](NC(=O)C2CCCC(C(=O)N[C@H]3C[C@@H](C(=O)N[C@H](C)c4ccccc4)N(C(=O)[C@@H](NC(=O)[C@H](C)NC)C(C)(C)C)C3)C2)C[C@H]1C(=O)N[C@H](C)c1ccccc1)C(C)(C)C (stereo partly drawn) [Compound P3-97] | – | – | – | IC50 (PANC-1 cells, + 100 ng/ml TNFa, read-out: IC50 (uM) in cell viability assay in PANC-1 cells, Cmpnd + 100 ng/ml TNFa): 0.059 µM; IC50 (PANC-1 cells, + 300 ng/ml TRAIL, read-out: IC50 (uM) in cell viability assay in PANC-1 cells, Cmpnd + 300 ng/ml TRAIL): 0.065 µM; IC50 (PANC-1 cells, compound alone, read-out: IC50 (uM) in cell viability assay in PANC-1 cells, Cmpnd alone): > 1 µM |
| CN[C@@H](C)C(=O)N[C@H](C(=O)N1CCC[C@H]1CN(CCc1ccccc1)C(=O)CCC#CC#CCCC(=O)N(CCc1ccccc1)C[C@@H]1CCCN1C(=O)[C@@H](NC(=O)[C@H](C)NC)C(C)(C)C)C(C)(C)C [Compound P4-21] | – | – | – | IC50 [4]: > 1 µM; IC50 [5]: 0.151 µM; IC50 [6]: 0.175 µM |
| CN[C@@H](C)C(=O)NC(C(=O)N[C@@H](CCC(=O)NCc1cn([C@H]2C[C@@H](C(=O)N[C@@H]3CCCc4ccccc43)N(C(=O)[C@@H](NC(=O)[C@H](C)NC)C(C)(C)C)C2)nn1)C(=O)N[C@H](C)C(C)C)C(C)C (stereo partly drawn) [Compound 202] | > 1 | 0.679 | 0.674 | – |
| CN[C@@H](C)C(=O)N[C@H](C(=O)N1CCC[C@H]1C(=O)N[C@H](COC(=O)c1cccc(C(=O)OC[C@@H](NC(=O)[C@@H]2CCCN2C(=O)[C@@H](NC(=O)[C@H](C)NC)C(C)(C)C)c2ccccc2)c1)c1ccccc1)C(C)(C)C [Compound P4-23] | – | – | – | IC50 [4]: > 1 µM; IC50 [5]: 0.014 µM; IC50 [6]: 0.006 µM |
| CN[C@@H](C)C(=O)N[C@@H](CCCCCC[C@H](NC(=O)[C@H](C)NC)C(=O)N1CCC[C@H]1CNC(=O)c1cnccn1)C(=O)N1CCC[C@H]1CNC(=O)c1cnccn1 [Compound 30] | > 1 | > 1 | > 1 | – |
